Data from ChEMBL document CHEMBL4219198, “Peptidomimetic nitrile inhibitors of malarial protease falcipain-2 with high selectivity against human cathepsins” (Bioorg Med Chem Lett, 2018).

Tests used:
Cathepsin K = target: T1, Cathepsin K (Homo sapiens, UniProt P43235); test: Inhibition of human cathepsin K
T1 sequence (P43235 whole entry): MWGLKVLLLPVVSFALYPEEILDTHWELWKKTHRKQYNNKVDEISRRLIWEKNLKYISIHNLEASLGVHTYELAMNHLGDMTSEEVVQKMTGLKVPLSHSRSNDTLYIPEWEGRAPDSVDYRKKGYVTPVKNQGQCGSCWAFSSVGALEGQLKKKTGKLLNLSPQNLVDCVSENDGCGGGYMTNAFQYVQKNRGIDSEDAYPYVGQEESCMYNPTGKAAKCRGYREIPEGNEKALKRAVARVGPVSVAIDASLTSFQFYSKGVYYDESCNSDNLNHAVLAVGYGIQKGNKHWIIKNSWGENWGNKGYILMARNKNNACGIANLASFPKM

Cathepsin S = Cathepsin S (Homo sapiens, UniProt P25774); test: Inhibition of human cathepsin S
Cathepsin S, sequence (P25774 whole entry): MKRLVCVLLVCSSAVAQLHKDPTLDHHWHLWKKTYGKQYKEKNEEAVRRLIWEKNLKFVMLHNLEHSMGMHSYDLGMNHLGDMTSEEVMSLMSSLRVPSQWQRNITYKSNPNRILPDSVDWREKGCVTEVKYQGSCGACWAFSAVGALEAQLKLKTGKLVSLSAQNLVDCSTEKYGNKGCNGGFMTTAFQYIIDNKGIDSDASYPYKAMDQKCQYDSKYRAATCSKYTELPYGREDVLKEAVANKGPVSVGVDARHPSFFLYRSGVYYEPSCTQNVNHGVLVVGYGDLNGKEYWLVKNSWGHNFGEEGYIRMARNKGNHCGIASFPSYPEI

Cathepsin B = Cathepsin B (Homo sapiens, UniProt P07858); test: Inhibition of human cathepsin B
Procathepsin L = Procathepsin L (Homo sapiens, UniProt P07711); test: Inhibition of human cathepsin L
Procathepsin L, sequence (P07711 whole entry): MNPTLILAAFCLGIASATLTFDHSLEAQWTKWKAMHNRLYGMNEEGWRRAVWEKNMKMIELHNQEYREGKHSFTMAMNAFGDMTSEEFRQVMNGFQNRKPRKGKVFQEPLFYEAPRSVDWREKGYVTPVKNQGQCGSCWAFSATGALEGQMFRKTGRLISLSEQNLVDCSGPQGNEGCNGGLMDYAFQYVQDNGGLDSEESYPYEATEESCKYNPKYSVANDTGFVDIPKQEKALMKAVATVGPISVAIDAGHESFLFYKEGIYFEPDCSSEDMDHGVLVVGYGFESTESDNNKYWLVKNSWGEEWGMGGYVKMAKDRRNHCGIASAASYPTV

Falcipain 2 = target: T2, Falcipain 2 (Plasmodium falciparum, UniProt Q9N6S8); test: Inhibition of Plasmodium falciparum falcipain-2
T2 sequence (Q9N6S8 whole entry): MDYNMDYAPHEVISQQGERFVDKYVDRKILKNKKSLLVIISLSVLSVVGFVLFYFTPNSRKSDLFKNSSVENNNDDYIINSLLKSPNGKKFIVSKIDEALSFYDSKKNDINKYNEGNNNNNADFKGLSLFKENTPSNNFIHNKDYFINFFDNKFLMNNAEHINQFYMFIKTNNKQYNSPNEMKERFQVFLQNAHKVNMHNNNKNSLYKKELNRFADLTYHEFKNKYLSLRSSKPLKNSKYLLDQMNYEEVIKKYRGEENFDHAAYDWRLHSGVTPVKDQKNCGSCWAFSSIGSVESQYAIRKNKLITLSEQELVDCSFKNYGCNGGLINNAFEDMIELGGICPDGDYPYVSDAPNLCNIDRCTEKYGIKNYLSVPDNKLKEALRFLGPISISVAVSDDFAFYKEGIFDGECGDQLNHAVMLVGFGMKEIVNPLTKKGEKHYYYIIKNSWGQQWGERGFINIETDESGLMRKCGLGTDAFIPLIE

[1] = Selectivity ratio of IC50 for human cathepsin K to IC50 for Plasmodium falciparum falcipain-2
[2] = Selectivity ratio of IC50 for human cathepsin S to IC50 for Plasmodium falciparum falcipain-2
[3] = Selectivity ratio of IC50 for human cathepsin B to IC50 for Plasmodium falciparum falcipain-2
[4] = Selectivity ratio of IC50 for human cathepsin L to IC50 for Plasmodium falciparum falcipain-2
[5] = Cytotoxicity against human HeLa cells assessed as reduction in cell viability; type: cell-based
[6] = Cytotoxicity against HUVEC assessed as reduction in cell viability; type: cell-based; conditions: human, HUVEC cells
Plasmodium falciparum = test: Antimalarial activity against Plasmodium falciparum infected in human erythrocytes; type: functional, organism-based
[7] = target: T3, Cysteine protease falcipain-3 (Plasmodium falciparum, UniProt Q9NAW4); test: Inhibition of Plasmodium falciparum falcipain-3
T3 sequence (Q9NAW4 whole entry): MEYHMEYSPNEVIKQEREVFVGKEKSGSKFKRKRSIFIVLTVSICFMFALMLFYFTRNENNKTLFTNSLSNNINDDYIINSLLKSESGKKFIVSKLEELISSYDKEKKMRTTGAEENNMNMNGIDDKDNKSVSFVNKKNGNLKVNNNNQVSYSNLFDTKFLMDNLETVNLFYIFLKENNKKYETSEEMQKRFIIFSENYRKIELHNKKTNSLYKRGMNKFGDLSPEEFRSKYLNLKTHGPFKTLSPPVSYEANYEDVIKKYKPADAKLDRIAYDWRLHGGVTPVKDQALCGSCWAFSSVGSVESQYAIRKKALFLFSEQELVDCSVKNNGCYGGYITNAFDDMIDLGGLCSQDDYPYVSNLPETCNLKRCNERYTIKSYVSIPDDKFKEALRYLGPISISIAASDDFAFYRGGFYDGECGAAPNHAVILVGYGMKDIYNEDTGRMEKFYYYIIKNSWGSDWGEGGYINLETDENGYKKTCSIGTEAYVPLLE

IC50 (Cathepsin K) [nM]	IC50 (Cathepsin S) [nM]	IC50 (Cathepsin B) [nM]	IC50 (Procathepsin L) [nM]	IC50 (Falcipain 2) [nM]	Ratio IC50 [1]	Ratio IC50 [2]	Ratio IC50 [3]	Ratio IC50 [4]	EC50 (Plasmodium falciparum) [nM]	IC50 [7] [nM]	SMILES	CC50 [5] [nM]	CC50 [6] [nM]
2690	3580	2240	300	1590	–	–	–	–	–	–	N#CC1(NC(=O)[C@H](Cc2ccc(O[C@@H]3CCNC3)cc2)NC(=O)c2ccc(-c3ccccc3)cc2)CC1	–	–
–	–	–	–	8.2	180	26	> 610	302	–	–	CS(=O)(=O)c1cccc(-c2cccc(C(=O)N[C@@H](Cc3cccnc3)C(=O)NC3(C#N)CC3)c2)c1	–	–
–	–	–	–	25.9	34	32	> 192	14	–	–	CN1CCN(Cc2ccc(C(=O)N[C@@H](Cc3cccnc3)C(=O)NC3(C#N)CC3)s2)CC1	–	–
1870	253	1100	494	192	–	–	–	–	–	–	N#CC1(NC(=O)[C@H](Cc2c[nH]c3ccc(O)cc23)NC(=O)c2ccc(-c3ccccc3)cc2)CC1	–	–
–	–	–	–	2.4	> 2080	552	> 2080	45	2000	–	CN1CCN(Cc2ccc(-c3cncc(C(=O)N[C@@H](Cc4cccnc4)C(=O)NC4(C#N)CC4)c3)cc2)CC1	> 16000	> 16000
> 5000	190	> 5000	4280	230	–	–	–	–	–	–	N#CC1(NC(=O)C(Cc2ccc(Cl)nc2)NC(=O)c2ccc(-c3ccccc3)cc2)CC1 (stereo unspecified)	–	–
1	1	2320	4	57	–	–	–	–	2700	–	CC(C)C[C@H](NC(=O)c1ccc(CN2CCN(C)CC2)cc1)C(=O)NC1(C#N)CCS(=O)(=O)CC1	–	–
202	382	2750	1590	23.1	9	11	119	69	> 25000	117	N#CC1(NC(=O)[C@H](Cc2cccnc2)NC(=O)c2ccc(-c3ccccc3)cc2)CC1	–	–
> 5000	195	4080	2630	178	–	–	–	–	–	–	COc1ccc(CC(NC(=O)c2ccc(-c3ccccc3)cc2)C(=O)NC2(C#N)CC2)cn1 (stereo unspecified)	–	–
–	–	–	–	> 5000	–	–	–	–	–	–	N#CC1(NC(=O)[C@H](CCCCCN)NC(=O)c2ccc(-c3ccccc3)cc2)CC1	–	–
–	–	–	–	6.3	107	9	> 793	679	–	–	Cn1nc(C(F)(F)F)cc1-c1ccc(C(=O)N[C@@H](Cc2cccnc2)C(=O)NC2(C#N)CCS(=O)(=O)CC2)s1	–	–
–	–	–	–	2.7	718	76	> 1850	128	2000	–	N#CC1(NC(=O)[C@H](Cc2cccnc2)NC(=O)c2cccc(-c3ncc[nH]3)c2)CC1	> 16000	> 16000
867	710	> 5000	755	> 5000	–	–	–	–	–	–	N#CC1(NC(=O)[C@H](Cc2ccncc2)NC(=O)c2ccc(-c3ccccc3)cc2)CC1	–	–
> 5000	–	715	> 5000	> 5000	–	–	–	–	–	–	CN(C)c1ccc(C[C@H](NC(=O)c2ccc(-c3ccccc3)cc2)C(=O)NC2(C#N)CC2)cc1	–	–
–	–	–	–	2.2	212	30	> 2270	1240	–	–	Cn1nc(C(F)(F)F)cc1-c1ccc(C(=O)N[C@@H](Cc2cccnc2)C(=O)NC2(C#N)CC2)s1	–	–
213	283	2210	635	667	–	–	–	–	–	–	N#CC1(NC(=O)[C@H](Cc2ccccc2)NC(=O)c2ccc(-c3ccccc3)cc2)CC1	–	–
0.11	1.1	2500	99	8	–	–	–	–	> 25000	–	CC(C)C[C@H](NC(=O)c1ccc(-c2ccccc2)cc1)C(=O)NC1(C#N)CCS(=O)(=O)CC1	–	–
–	–	–	–	1.2	2350	42	> 4170	349	2000	–	N#CC1(NC(=O)[C@H](Cc2cccnc2)NC(=O)c2cccc(-c3cn[nH]c3)c2)CC1	> 16000	> 16000
–	–	–	–	3	1360	35	> 1670	574	2000	–	N#CC1(NC(=O)[C@H](Cc2cccnc2)NC(=O)c2cccc(-n3cnnn3)c2)CC1	> 16000	> 16000
0.2	30	987	0.7	0.6	–	–	–	–	61	–	CC(C)CN(NC(=O)c1ccc(CN2CCN(C)CC2)cc1)c1nc(C#N)ncc1Br	–	–
–	–	–	–	8.6	170	202	> 581	61	–	–	CN1CCCC(c2cccc(C(=O)N[C@@H](Cc3cccnc3)C(=O)NC3(C#N)CC3)c2)C1 (stereo partly specified)	–	–
435	2370	2370	> 5000	137	–	–	–	–	–	–	N#CC1(NC(=O)[C@H](Cc2cscn2)NC(=O)c2ccc(-c3ccccc3)cc2)CC1	–	–
–	–	–	–	55.4	34	7	> 90	6	–	–	CN1CCN(Cc2ccc(C(=O)N[C@@H](Cc3cccnc3)C(=O)NC3(C#N)CCS(=O)(=O)CC3)s2)CC1	–	–
> 5000	18	> 5000	334	> 5000	–	–	–	–	–	–	N#CC1(NC(=O)[C@H](Cc2nc3ccccc3s2)NC(=O)c2ccc(-c3ccccc3)cc2)CC1	–	–
1.3	85	1720	492	27	–	–	–	–	–	–	CC(C)C[C@H](NC(=O)c1ccc(-c2ccccc2)cc1)C(=O)NC1(C#N)CC1	–	–
3830	> 5000	> 5000	> 5000	> 5000	–	–	–	–	–	–	N#CC1(NC(=O)[C@H](Cc2ccccn2)NC(=O)c2ccc(-c3ccccc3)cc2)CC1	–	–
> 5000	> 5000	> 50000	> 5000	> 5000	–	–	–	–	–	–	N#CC1(NC(=O)[C@@H](Cc2cccnc2)NC(=O)c2ccc(-c3ccccc3)cc2)CC1	–	–
> 5000	> 5000	> 5000	> 5000	> 5000	–	–	–	–	–	–	CN1CCN(C(=O)C[C@H](NC(=O)c2ccc(-c3ccccc3)cc2)C(=O)NC2(C#N)CC2)CC1	–	–
> 5000	> 5000	1270	> 5000	> 5000	–	–	–	–	–	–	N#CC1(NC(=O)[C@H](CCCCN)NC(=O)c2ccc(-c3ccccc3)cc2)CC1	–	–
